One series has as its system SARS-CoV-2. Also noted: method as in PMID 35352927. The settings on record: TMPRSS2 VeroE6 model of SARS-CoV-2 infection; read-out: EC50 (antiviral); cited from earlier work.
A further series relates to SARS-CoV2. On the set-up: method as in PMID 33786375, PMID 34161756. The settings on record: SARS-CoV2 plaque reduction assay; read-out: antiviral EC50; cited from earlier work.
A further series addresses SARS-CoV-2 3CL^pro (Severe acute respiratory syndrome coronavirus 2, UniProt P0DTD1). Put plainly: biochemical. As to conditions: for IC50: SARS-CoV-2 3CLpro. The format is biochemical.
Series [1] in a line: Intrinsic clearance in human S9 fractions. The format is in vitro ADME.
Series [2] in a line: Intrinsic clearance in human microsomes. The format is in vitro ADME.

The values that follow come from paper PMC10197776 (Research Square, 2023).

Each structure is given as a SMILES string.

As usually defined, the EC50 is the concentration at which the effect is half-maximal. On to `Cn1cnc(Cn2c(=O)[nH]/c(=N\c3cc4cn(C)nc4cc3Cl)n(Cc3cc(F)c(F)cc3F)c2=O)n1` [compound 2, Ensitrelvir], for which the concentration for a half-maximal effect (EC50) with SARS-CoV-2 was 370 nM.
In the case of `N#Cc1ccccc1-c1cc(-c2cc(Cl)cc(OCC3CC3)c2)c(=O)n(-c2cccnc2)c1` [compound 3], the EC50 with SARS-CoV2 was 980 nM.
As a reminder, the IC50 is the concentration that inhibits the measured activity by half. Lower therefore signals higher potency. As to `O=C(Cc1cccnc1)N(Cc1cccc(Cl)c1)c1ccc(-c2cn[nH]c2)cc1` [compound 7], inhibition on SARS-CoV-2 3CL^pro was half-maximal at 1270 nM (IC50). The “LE (ligand efficiency)” value at SARS-CoV-2 3CL^pro (from 3CLpro IC50) came out at 0.27. The “reduction in intrinsic clearance metabolism versus 6” value in series [1] and in series [2] was “two-fold reduction” throughout.
As for `O=C(Cc1cncc2ccccc12)N(Cc1cc(F)cc(Cl)c1)c1ccc(-c2c[nH]cn2)cc1` [compound 27], the “fold improvement in IC50 compared to monocyclic pyridine 19” value at SARS-CoV-2 3CL^pro (IC50 ratio vs 19) is over 6 fold. Also, at SARS-CoV-2 3CL^pro, the IC50 turned out to be 26 nM. Further, the LipE at SARS-CoV-2 3CL^pro (from 3CLpro IC50 and calculated properties) is given as 2.24.
